Assay results as given in patent publication US20210401821A1, “PROPHYLACTIC OR THERAPEUTIC AGENT AND MEDICINAL COMPOSITION FOR IL-31-MEDIATED DISEASE” (Kyushu University, National University Corporation, priority 2018, published 2021).

Key:
wild-type C57BL/6 mice [1] = test: Scratching behavior induced by IL-31 after NK3R antagonist administration; format: in vivo, mouse; conditions: 45 minutes before intradermal IL-31 (1 μg/50 μl)
Experimental: (§1) Prior to the experiments, mice were placed in an acrylic cage (11 cm×14 cm×20 cm) for at least 1 hour to acclimatize to the environment. Subsequently, 50 μL of a pruritus-inducing substance dissolved in sterilized physiological saline was injected intradermally into shoulders of the mice, and the behavior of these mice was videotaped. The total number of scratching behavior within a specified time was determined by playing the video. During the scratching behavior of a mouse, the mouse extends its hind leg to the itchy area, tilts its head toward the hind leg, quickly turns the hind leg several times, and returns the hind leg to the ground. These series of actions were counted as one scratching behavior. As pruritus-inducing substances. IL-31 (1 μg/50 μl; PeproTech Inc.). SLIGRL-NH2 (100 μg/50 μl; Bachem Holding AG), chloroquine (100 μg/50 μl; Wako Pure Chemical Industries.), and histamine (100 μg/50 μl; Wako Pure Chemical Industries.) were used.
(§2) In some experiments, the actions of NK3R antagonists on the scratching behavior of the mice were investigated. As compounds having activity as an NK3R antagonist or an NK3R antagonist, osanetant (Axon Medchem.), talnetant (NAMIKI SHOJI Co., Ltd.), pavinetant (NAMIKI SHOJI Co., Ltd.), fezolinetant (Haoyuan Chemexpress Co., Ltd.). SSR-146977 (Tocris Bioscience.), SSR-241586 (WuXi AppTec New Drug Development Co. Ltd.), SB-235375 (WuXi AppTec New Drug Development Co. Ltd.), and CS-003 (WuXi AppTec New Drug Development Co. Ltd.) were used. These compounds were administered to the mice in a predetermined amount per weight of each mouse 45 minutes before the intradermal injection of the pruritus-inducing substance. Osanetant was dissolved in phosphate buffered saline (PBS) containing 0.1% Tween-20 and intraperitoneally injected at 5 mg/kg. Talnetant and pavinetant were dissolved in a mixture of 10% dimethyl sulfoxide (DMSO), 40% polyethylene glycol 300, 5% Tween-80, and 45% saline and were intraperitoneally injected at 30 mg/kg. Fezolinetant was dissolved in PBS containing 10% DMSO and orally administered at 10 mg/kg. SSR-146977 was dissolved in PBS containing 0.1% ethanol and intraperitoneally injected at 0.3 mg/kg. SSR-241586 was dissolved in a 0.01% Tween-80 aqueous solution and intraperitoneally injected at 3 mg/kg. SB-235375 was dissolved in PBS and orally administered at 3 mg/kg. CS-003 was dissolved in PBS containing 5% glucose and intravenously injected at 3 mg/kg.
(§3) Similar to osanetant, fezolinetant that is a selective antagonist of NK3R was orally administered to wild-type C57BL/6 mice, and the effect on the scratching behavior induced by IL-31, histamine, or chloroquine was analyzed.
(§4) Furthermore, CS-003 that is an antagonist to neurokinin 3 receptor (NK3R) and also an antagonist to neurokinin 1 receptor (NK1R) and neurokinin 2 receptor (NK2R), and SSR-241586 that is an antagonist to NK3R and NK2R were administered to wild-type C57BL/6 mice, and then the effects of the compounds on the scratching behavior induced by IL-31 or chloroquine were analyzed.

wild-type C57BL/6 mice [2] = test: Scratching behavior induced by chloroquine after NK3R antagonist administration; format: in vivo, mouse; conditions: 45 minutes before intradermal chloroquine (100 μg/50 μl)
Experimental: as §1, §2, §3, §4

wild-type C57BL/6 mice [3] = test: Scratching behavior induced by histamine after NK3R antagonist administration; format: in vivo, mouse; conditions: 45 minutes before intradermal histamine (100 μg/50 μl)
Experimental: as §1
In some experiments, the actions of NK3R antagonists on the scratching behavior of the mice were investigated. […]
as §3

Tac2−/− (Δ4) mice = test: Scratching behavior after injecting NKB into medullary cavities; format: in vivo, mouse; conditions: FIG. 10(a)
Experimental: Next, in order to identify the site where NKB was functioning. NKB was injected into medullary cavities of Tac2^−/− (Δ4) mice, and scratching behavior was analyzed.

Grp mRNA = Grp mRNA expression in stimulated DRG neurons in vitro; format: cell-based, mouse; conditions: DRG neurons from wild-type C57BL/6 mice stimulated with NKB in vitro; FIG. 4(b)
Experimental: (§5) Total RNAs were extracted from each tissue using ISOGEN (NIPPON GENE CO., LTD.). Total RNAs were treated with RNase-free DNase I (Thermo Fisher Scientific K.K.). This RNA sample was reverse transcribed using an oligo (dT) primer (v) and SuperScript III reverse transcriptase (Thermo Fisher Scientific K.K.), and amplified by PCR. Real-time PCR was performed by Cfx Connect™ Thermal Cycler (Bio-Rad Laboratories, Inc.) using SYBR Green PCR Master Mix (Applied Biosystems). The expression level of the target gene was normalized by an expression level of Hprt gene. For the analysis, CFX Manager (ver3.1) attached to a device was used.
(§6) Changes in the expression levels of Tac2, Grp. and Nppb through administration of IL-31 or NKB were analyzed. First. DRG neurons isolated from the wild-type C57BL/6 mice were stimulated by the addition of the IL-31 protein in vitro, and the expression levels of Tac2 mRNA, Grp mRNA, and Nppb mRNA were analyzed.
(§7) Next, DRG neurons isolated from the wild-type C57BL/6 mice were stimulated by neurokinin B (NKB) in vitro, and the expression levels of Grp mRNA and Nppb mRNA were analyzed.

Nppb mRNA = Nppb mRNA expression in stimulated DRG neurons in vitro; format: cell-based, mouse; conditions: DRG neurons from wild-type C57BL/6 mice stimulated with NKB in vitro; FIG. 4(b)
Experimental: as §5, §6, §7

[4] = SSR-241586 3 mg/kg intraperitoneal, CS-003 3 mg/kg intravenous, FIGS. 16(a), 17(a)
[5] = 30 mg/kg intraperitoneal, FIGS. 13(a), 14(a)
[6] = 30 mg/kg intraperitoneal, FIGS. 13(b), 14(b)

COc1cc(C(=O)N2CCO[C@](CCN3CCC4(CC3)c3ccccc3C[S@+]4[O-])(c3ccc(Cl)c(Cl)c3)C2)cc(OC)c1OC [CS-003]
frequency of scratching behavior induced by IL-31 (wild-type C57BL/6 mice [1]; [4]): suppressed

CC[C@H](NC(=O)c1c(OCC(=O)O)c(-c2ccccc2)nc2ccccc12)c1ccccc1 [SB-235375, 2-[2-phenyl-4-[N-[1 (S)-phenylpropyl]carbamoyl]quinoline-3-yloxy]acetic acid]
frequency of scratching behavior induced by IL-31 (wild-type C57BL/6 mice [1]; 3 mg/kg oral, FIG. 18(a)): did decrease | frequency of scratching behavior by chloroquine (wild-type C57BL/6 mice [2]; 3 mg/kg oral, FIG. 18(b)): did not decrease

CN(C)C(=O)C1(N2CCCCC2)CCN(CC[C@@]2(c3ccc(Cl)c(Cl)c3)CN(C(=O)c3ccccc3)CCO2)CC1 [SSR-241586, (+)-1′-[2-[4-benzoyl-2(R)-(3,4-dichlorophenyl)morpholine-2-yl]ethyl]-N,N-dimethyl-1,4′-bipiperidin-4′-carboxamide]
frequency of scratching behavior induced by IL-31 (wild-type C57BL/6 mice [1]; [4]): suppressed

Cc1nsc(-c2nnc3n2CCN(C(=O)c2ccc(F)cc2)[C@@H]3C)n1 [fezolinetant, (4-fluorophenyl)-[(8R)-8-methyl-3-(3-methyl-1,2,4-thiadiazole-5-yl)-6,8-dihydro-5H-[1,2,4]triazolo[4,3-a]pyrazine-7-yl]-methanone]
frequency of scratching behavior by IL-31 (wild-type C57BL/6 mice [1]; fezolinetant 10 mg/kg oral, FIG. 12(a)): decreased | frequency of scratching behavior by histamine (wild-type C57BL/6 mice [3]; fezolinetant 10 mg/kg oral, FIG. 12(b)): did not decrease | frequency of scratching behavior by chloroquine (wild-type C57BL/6 mice [2]; fezolinetant 10 mg/kg oral, FIG. 12(c)): did not decrease

CC(=O)N(C)C1(c2ccccc2)CCN(CCC[C@]2(c3ccc(Cl)c(Cl)c3)CCCN(C(=O)c3ccccc3)C2)CC1 [osanetant, N-[1-[3-[(3R)-1-benzoyl-3-(3,4-dichlorophenyl)piperidine-3-yl)propyl)-4-phenylpiperidine-4-yl]-N-methyl acetamide]
frequency of scratching behavior by IL-31 (wild-type C57BL/6 mice [1]; osanetant 5 mg/kg intraperitoneal, FIG. 11(c)): decreased | frequency of scratching behavior by histamine (wild-type C57BL/6 mice [3]; osanetant 5 mg/kg intraperitoneal, FIG. 11(d)): did not decrease | frequency of scratching behavior by chloroquine (wild-type C57BL/6 mice [2]; osanetant 5 mg/kg intraperitoneal, FIG. 11(e)): did not decrease

CC[C@H](NC(=O)c1c(NS(C)(=O)=O)c(-c2ccccc2)nc2ccccc12)c1ccccc1 [pavinetant]
frequency of scratching behavior induced by IL-31 (wild-type C57BL/6 mice [1]; [5]): did decrease | frequency of scratching behavior by chloroquine (wild-type C57BL/6 mice [2]; [6]): did not decrease

CC[C@H](NC(=O)c1c(O)c(-c2ccccc2)nc2ccccc12)c1ccccc1 [talnetant, N-(α-ethylbenzyl)-3-hydroxy-2-phenylquinoline-4-carboxamide]
frequency of scratching behavior induced by IL-31 (wild-type C57BL/6 mice [1]; [5]): did decrease | frequency of scratching behavior by chloroquine (wild-type C57BL/6 mice [2]; [6]): did not decrease

NKB: mature neurokinin B, neuropeptide from PPT-3 (Tac2 gene), SEQ ID NO: 2; binds neurokinin receptor 3 (DMHDFFVGLM; listed as Homo sapiens)
scratching behavior after intramedullary injection of NKB (Tac2−/− (Δ4) mice): induced the scratching behavior | expression level of Grp mRNA (Grp mRNA): increased | expression level of Nppb mRNA (Nppb mRNA): increased
